“Also recorded” adds a separate entry of the source. Where two headings read alike, the source gives them in different places.
Key:
[1] = system: A2780; assay: MTT antiproliferative assay; assay type: cell-based, human; details: for IC50 / inhibition at 10 µM / inhibition at 30 µM: Homo sapiens; for IC50: read-out: IC50 Value (μM) ± SEM; for inhibition at 10 µM: A2780, 10 μM; for inhibition at 30 µM: A2780, 30 μM; for Selectivity Ratio: IC50 on NIH/3T3 fibroblasts / IC50 on A2780
Description: (§1) As the NCI has not been accepting compound submissions from investigators outside the USA for NCI-60 testing since 2024, chrysin derivatives 3i, 3j, and 5 were instead evaluated in additional viability assays against a simplified panel of human cancer cell lines representing breast (MCF-7 and MDA-MB-231), cervical (HeLa and SiHa), and ovarian cancers. A nonmalignant fibroblast cell line (NIH/3T3) was also used to obtain preliminary results describing the cancer selectivity of the test substances. […] The two effective agents were further investigated using a broad concentration range (0.1–30 µM), and their IC50 values were calculated (Table 3).
(§2) The cell growth-inhibiting properties of compounds 3i, 3j, and 5 were determined by means of the MTT assay against a panel of human malignant cell lines of gynecological origin [8, 27, 40]. The panel included breast (MCF-7 and MDA-MB-231; Cellosaurus accessions: CVCL_0031 and CVCL_0062, respectively), cervical (HeLa and SiHa; CVCL_0030 and CVCL_0032, respectively), and ovarian (A2780; CVCL_0134) cell lines. Nonmalignant murine NIH/3T3 (CVCL_0594) fibroblasts were also used to obtain results characterizing the cancer selectivity of the tested substances. The whole assay was performed as described earlier. […] All applied cell lines were obtained from the European Collection of Cell Cultures (Salisbury, UK), except for SiHa (American Tissue Culture Collection, Manassas, VA, USA). Cisplatin, a clinically available anticancer drug, was included as a reference compound. All experiments were conducted twice, with at least five replicates per condition.

[2] = system: HeLa; assay: MTT antiproliferative assay; assay type: cell-based, human; details: for IC50 / inhibition at 10 µM / inhibition at 30 µM: Homo sapiens, HeLa; for IC50: read-out: IC50 Value (μM) ± SEM; for Selectivity Ratio: IC50 on NIH/3T3 fibroblasts / IC50 on HeLa
Description: as §1, §2

[3] = system: MCF-7; assay: MTT antiproliferative assay; assay type: cell-based, human; details: for inhibition at 10 µM / inhibition at 30 µM / IC50: Homo sapiens, MCF7; for inhibition at 10 µM: MCF-7, 10 μM; for inhibition at 30 µM: MCF-7, 30 μM; for IC50: MCF-7, read-out: IC50 Value (μM) ± SEM; for Selectivity Ratio: IC50 on NIH/3T3 fibroblasts / IC50 on MCF-7
Description: as §1, §2

[4] = system: MDA-MB-231; assay: MTT antiproliferative assay; assay type: cell-based, human; details: for IC50 / inhibition at 10 µM / inhibition at 30 µM: Homo sapiens; for IC50: read-out: IC50 Value (μM) ± SEM; for inhibition at 10 µM: MDA-MB-231, 10 μM; for inhibition at 30 µM: MDA-MB-231, 30 μM; for Selectivity Ratio: IC50 on NIH/3T3 fibroblasts / IC50 on MDA-MB-231
Description: as §1, §2

[5] = system: SiHa; assay: MTT antiproliferative assay; assay type: cell-based, human; details: for IC50 / inhibition at 10 µM / inhibition at 30 µM: Homo sapiens, SiHa; for IC50: read-out: IC50 Value (μM) ± SEM; for Selectivity Ratio: IC50 on NIH/3T3 fibroblasts / IC50 on SiHa
Description: as §1, §2

[6] = system: NIH/3T3 (fibroblast); assay: MTT antiproliferative assay; assay type: cell-based, murine; details: Mus musculus; for inhibition at 10 µM: NIH3T3, 10 μM; for IC50: NIH3T3, read-out: IC50 Value (μM) ± SEM
Description: as §1, §2

[7] = system: panel of human malignant cell lines of gynecological origin; assay: MTT antiproliferative assay, whole panel; assay type: cell-based; details: for inhibition at 10 µM / IC50: Homo sapiens; for inhibition at 10 µM: across the tested cell lines, read-out: inhibition rates; for IC50: HeLa, SiHa, MCF-7, MDA-MB-231, A2780, read-out: IC50 values (range over cancer cell lines)
Description: as §1
Besides the cell growth-inhibiting potency, cancer selectivity is a crucial factor determining the perspective of a drug candidate. This property is expressed as a selectivity ratio, i.e., the ratio of the compound’s IC50 obtained on the non-cancerous fibroblasts and those from the cancer cell lines. A higher ratio indicates more promising cancer selectivity (Table 3). […] Based on these efficacy and selectivity data, further cell-based studies were performed with 3i against MCF-7 breast cancer cells.
as §2

[8] = system: MCF-7 cells; assay: Cell cycle analysis by flow cytometry; assay type: cell-based, human; details: MCF-7, 0.3 and 0.6 µM
Protocol: The observed cell cycle disturbance is consistent with a blockade at the G1–S transition, which triggers apoptotic cell death.
Cell cycle analysis by flow cytometry was applied to characterize the effects of 3i on the phase distribution of the treated cells. MCF-7 cells were seeded onto 12-well plates (200,000 cells/well) and incubated overnight. They were then treated with 0.3 or 0.6 μM for 24 or 48 h. After the treatment, the propidium iodide-labeled cells were analyzed using a CytoFLEX instrument (Beckman Coulter, Brea, CA, USA), and at least 20,000 cells per sample were evaluated, as described in a recent publication. The obtained data were processed using ModFit LT 3.3.11 software (Verity Software House, Topsham, ME, USA) as referenced by Vermes et al..

[9] = system: MCF-7 cells; assay: Wound-healing assay (migration); assay type: cell-based, human
Protocol: The effect of the selected compound on the migration of MCF-7 cells was investigated by means of the wound-healing assay.
The effect of substance 3i on the migration of the treated cancer cells was determined using a wound-healing assay, as presented earlier. Briefly, MCF-7 cells were trypsinized and plated into wound assay chambers (ibidi GmbH, Martinsried, Germany) at a density of 40,000 cells/insert, and the plate was incubated under standard conditions to allow proper attachment. Then, the inserts were carefully removed, and the cells were subsequently treated with 3i in fresh medium containing 2% FBS. The cell migration was recorded using a phase-contrast inverted microscope (Nikon Instruments Europe, Amstelveen, The Netherlands) fitted with a CCD camera (QImaging MicroPublisher Color RTV5.0 Teledyne Photometrics, Tucson, AZ, USA). The cell-free areas in treated samples and controls were determined using ImageJ software 1.54d (National Institutes of Health, Bethesda, MD, USA). The assays were performed in triplicates and all the statistical analyses were carried out by means of GraphPad Prism software.

[10] = system: HeLa; set-up: method as in PMID 40332477; details: published earlier ref 8, read-out: IC50 Value (μM) ± SEM; cited from earlier work
[11] = system: SiHa; set-up: method as in PMID 40332477; details: published earlier ref 8, read-out: IC50 Value (μM) ± SEM; cited from earlier work
[12] = system: MCF-7; set-up: method as in PMID 40332477; details: published earlier ref 8, read-out: IC50 Value (μM) ± SEM; cited from earlier work
[13] = system: MDA-MB-231; set-up: method as in PMID 40332477; details: published earlier ref 8, read-out: IC50 Value (μM) ± SEM; cited from earlier work
[14] = system: A2780; set-up: method as in PMID 40332477; details: published earlier ref 8, read-out: IC50 Value (μM) ± SEM; cited from earlier work
[15] = system: NIH/3T3 (fibroblast); set-up: method as in PMID 40332477; details: published earlier ref 8, read-out: IC50 Value (μM) ± SEM; cited from earlier work
[16] = read-out: Growth Inhibition (%) ± SEM
[17] = read-out: Growth Inhibition (%) ± SEM (converted)
[18] = NIH3T3, 30 μM, read-out: Growth Inhibition (%) ± SEM
[19] = A2780, heading: Growth Inhibition ± SEM
[20] = heading: Growth Inhibition ± SEM
[21] = MDA-MB-231, heading: Growth Inhibition ± SEM

Row | Structure (SMILES) | IC50 ([1]; A2780) | inhibition at 10 µM [1, 16] | inhibition at 30 µM [1, 17] | Selectivity Ratio [1] | IC50 [2] | inhibition at 10 µM [2, 16] | inhibition at 30 µM [2, 17] | Selectivity Ratio [2] | inhibition at 10 µM [3, 16] | inhibition at 30 µM [3, 16] | IC50 [3] | Selectivity Ratio [3] | IC50 ([4]; MDA-MB-231) | inhibition at 10 µM [4, 16] | inhibition at 30 µM [4, 17] | Selectivity Ratio [4] | IC50 [5] | inhibition at 10 µM [5, 16] | Selectivity Ratio [5] | inhibition at 10 µM [6, 16] | other results
1 | COc1ccccc1[P+](CCCCOc1cc(O)c2c(=O)cc(-c3ccccc3)oc2c1)(c1ccccc1)c1ccccc1 [3i] | 0.66 ± 0.03 µM | 96.85 ± 0.37% | 98.3% | 2.52 | 1.08 ± 0.02 µM | 96.5 ± 2.76% | 98.9% | 1.54 | 95.4 ± 1.54% | 95.8 ± 1.46% | 0.26 ± 0.02 µM | 6.38 | 0.54 ± 0.02 µM | 88.6 ± 3.72% | 87.4% | 3.07 | 1.15 ± 0.03 µM | 83.2 ± 2.13% | 1.44 | 97.73 ± 0.53% | inhibition at 30 µM [5, 17]: 104%; inhibition at 30 µM [6, 18]: 98.5%; IC50 [6]: 1.66 ± 0.15 µM; inhibition at 10 µM [7]: > 80%; IC50 [7]: 260 to 1150 nM; cell cycle distribution ([8]; 24 h): significantly increased the proportion of the G0/G1 cell population; cell cycle distribution ([8]; 48 h): statistically significant accumulation of the hypodiploid (SubG1) cell population; inhibition of migration ([9]; MCF-7, 24 h): significant inhibition in the migration capacity at a concentration of 0.3 μM only; inhibition of migration ([9]; MCF-7, 48 h): significant even at subantiproliferative concentration (0.1 μM)
2 | CC(C)(C)[P+](CCCCOc1cc(O)c2c(=O)cc(-c3ccccc3)oc2c1)(c1ccccc1)c1ccccc1 [3j] | 1.37 ± 0.04 µM | 98.77 ± 0.19% | 98.96 ± 0.381% | 1.43 | 2.93 ± 0.02 µM | 96.64 ± 0.26% | 97.5% | 0.67 | 98.65 ± 0.29% | 98.68 ± 0.32% | 0.88 ± 0.01 µM | 2.23 | 1.24 ± 0.02 µM | 98 ± 1.03% | 98.1 ± 0.13% | 1.58 | 1.47 ± 0.01 µM | 97.91 ± 0.06% | 1.33 | 98.38 ± 0.53% | inhibition at 30 µM [5, 17]: 97.81 ± 0.46%; inhibition at 30 µM [6, 18]: 99%; IC50 [6]: 1.96 ± 0.01 µM; inhibition at 10 µM [7]: > 80%; IC50 [7]: 880 to 2930 nM
3 | N.N.[Cl][Pt][Cl] [Cisplatin] | – | – | – | 1.93 | – | – | – | 0.20 | – | – | – | 1.04 | – | – | – | 0.14 | – | – | 0.17 | – | IC50 [10]: 13.6 ± 0.44 µM; IC50 [11]: 15.5 ± 0.93 µM; IC50 [12]: 2.6 ± 0.17 µM; IC50 [13]: 19.13 ± 0.12 µM; IC50 [14]: 1.4 ± 0.11 µM; IC50 [15]: 2.7 ± 0.3 µM
4 | O=C(CC(c1ccccc1)(c1ccccc1)c1ccccc1)Oc1cc(O)c2c(=O)cc(-c3ccccc3)oc2c1 [compound 5] | – | – | – | – | – | – | – | – | – | – | – | – | – | – | – | – | – | – | – | > 10% | inhibition at 10 µM [1, 19]: < 10%; inhibition at 30 µM [1, 19]: < 10%; inhibition at 10 µM [2, 20]: < 10%; inhibition at 30 µM [2, 20]: < 10%; inhibition at 10 µM [3, 20]: < 10%; inhibition at 30 µM [3, 20]: < 10%; inhibition at 10 µM [4, 21]: < 10%; inhibition at 30 µM [4, 21]: < 10%; inhibition at 10 µM [5, 20]: < 10%; inhibition at 30 µM [5, 20]: < 10%; inhibition at 30 µM ([6]; NIH3T3, heading: Growth Inhibition ± SEM, 30 μM): < 10%; cell growth-inhibiting effect (in words) ([7]; 10 and 30 μM): ineffective; also recorded: no cytotoxicity

Reference: publication PMC12652692, “Synthesis and In Vitro Anticancer Evaluation of Novel Phosphonium Derivatives of Chrysin” (International Journal of Molecular Sciences, 2025)
